# Measured values: patent US20030195183A1, “Method for correcting immune system of live body” (priority 2000, published 2003)
# Where “and” joins values, the source holds several entries; their conditions need not be identical. Identical values can stand only once.
# Experiments:
# [1] = tested on: phagocytic cells; experiment: phagocytosis in vivo (peritoneal neutrophils and macrophages, St. aureus); design: species or system Strain C57BL6 mice
# Experimental: Intraperitoneal injection of 3 ml of 3% peptone was made, and 2 hours later the animals were killed with chloroform. The mice were autopsied in aseptic conditions. Liquid was aspirated from abdominal cavity with a Pasteur's pipette and transferred to centrifuge test tubes; then centrifuging was carried out for 10 minutes at 1,000 rpm. […] Similar volume of Strain 1991 St. aureus was added to cells in a proportion of 1:10 proportion and incubated at 37° C. for 30 minutes. After incubation, smears were prepared on slides, fixed in methanol for 20 minutes and processed with Romanovsky-Giemsa's stain for 30 minutes. For evaluating the phagocytic activity of macrophages, the animals were tested on the third day after administration of peptone. Further testing was carried out similarly with that of neutrophils. The results were evaluated using a microscope at a magnification of 90×. Phagocytic index and phagocytic number were determined.
# [2] = clinical study, treatment of acute intestinal infections (AII); type: in vivo, human
# Experimental: Efficacy of the preparation in decreasing the gravity of manifestations of various forms of AII was evaluated in accordance with the used program of study with aid of a three-point scale.
# After the study was finished, general evaluation of clinical efficacy and safety of the preparation based on a 4-point scale, depending on nosologic forms, was carried out.
# [3] = tested on: neutrophils; experiment: neutrophil phagocytosis in vitro; type: cell-based, human; conditions: for Phagocytic Index, Study Group / Phagocytic number, Study Group: individual samples
# Experimental: For evaluating the effect of the preparation on phagocytosis in vitro, blood sample was collected from donor's cubital vein in a test tube containing heparin at a dose of 10 units per ml of blood. 0.8 ml of 3% gelatin prepared based on Medium 199 were added to 2 ml of blood. The test tubes were incubated in a thermostat at 37° C. for 20 minutes. Then the supernatant containing cells was aspirated to a centrifuge tube. Cells were twice washed with Medium 199 with centrifuging at 1,000 rpm. 1 ml of Medium 199 was added to the sediment and neutrophils were counted in Goryaev's chamber. Then, cellular suspension containing 2·10^6 neutrophils in 1 ml was prepared based on Medium 199. Simultaneously, suspension of St. aureus in a concentration of 20·10^6/ml was prepared. After preliminary opsonization with an equal volume of pooled human plasma in a thermostat at 37° C. for 20 minutes, the Staphylococcus suspension was centrifuged and washed with Medium 199. The preparation in 200, 20 and 2 μg/ml concentrations was added to mixture of equal volumes of neutrophils and staphylococci; Medium 199 was added to control test tubes. After incubation in a thermostat at 37° C. for 30 minutes, the test tubes where centrifuged, and preparations were prepared in accordance with the procedure described above. Phagocytic index and phagocytic number for study group were compared with the same for control group.
# [4] = tested on: macrophages, interleukins and other acute phase proteins; conditions: e.g. patients with malignant tumors; dose range of 10 to 1000 mg; cited from earlier work
# [5] = Acute gastroenteritis, 4 patients
# [6] = Alimentary toxoinfection, 4 patients
# [7] = third dose group, dose cell empty
smiles,measurement,setting,value
"Nc1cccc2c(=O)[nH][nH]c(=O)c12.[K] [potassium salt of 5-amino-2,3-dihydrophthalazine-1,4-dione]",stimulating effect on phagocytic cells / phagocytic activity in vivo,[1]; dose 200 μg,no stimulating effect
same,ability of phagocytic cells to intake microbial cells,[1]; doses of 2 ug and 20 ug,statistically significant increase
same,phagocytic activity of macrophages in mice,[1]; doses ranging from 200 to 2 μg,stimulating effects
same,"patients with ""excellent"" or ""good"" effect",[2]; 20 patients with various forms of AII,90 % of patients
same,Efficacy of the preparation: Excellent (number of patients),"[2]; Acute dysentery, 9 patients",1
same,Efficacy of the preparation: Good (number of patients),"[2]; Acute dysentery, 9 patients",7
same,Efficacy of the preparation: Satisfactory (number of patients),"[2]; Acute dysentery, 9 patients",1
same,Efficacy of the preparation: Excellent (number of patients),[2]; [5],2
same,Efficacy of the preparation: Good (number of patients),[2]; [5],1
same,Efficacy of the preparation: Satisfactory (number of patients),[2]; [5],1
same,Efficacy of the preparation: Excellent (number of patients),[2]; [6],1
same,Efficacy of the preparation: Good (number of patients),[2]; [6],3
same,Efficacy of the preparation: Excellent (number of patients),"[2]; Salmonellosis, 3 patients",1
same,Efficacy of the preparation: Good (number of patients),"[2]; Salmonellosis, 3 patients",2
same,Efficacy of the preparation: Excellent (number of patients),"[2]; Total, 20 patients",5
same,Efficacy of the preparation: Good (number of patients),"[2]; Total, 20 patients",13
same,Efficacy of the preparation: Satisfactory (number of patients),"[2]; Total, 20 patients",2
same,"patients in whom the intoxication syndrome resolved within 1 to 3 days (""complete decrease"")",[2]; of 20 patients,19 patients
same,"patients with ""insignificant decrease"" in the first days and ""complete decrease"" by the 5th day of treatment",[2]; of 20 patients,one
same,"patients with ""excellent"" or ""good"" effect",[2]; of 20 patients with various forms of AII,18 patients
same,"Phagocytic Index, Study Group, Mean",[3]; dose 20 μg,7.8 ± 0.04
same,"Phagocytic number, Study Group, Mean",[3]; dose 20 μg,89 ± 1.25
same,"Phagocytic Index, Study Group",[3]; dose 20 μg,3.9 and 2.8 and 4.6 and 6.8 and 13.2 and 9.1 and 16.3 and 5.2
same,"Phagocytic number, Study Group",[3]; dose 20 μg,80 and 96 (2×) and 88 and 94 and 84 (2×) and 86
same,"Phagocytic Index, Study Group, Mean",[3]; dose 200 μg,6.0 ± 0.04
same,"Phagocytic number, Study Group, Mean",[3]; dose 200 μg,77 ± 0.26
same,"Phagocytic Index, Study Group",[3]; dose 200 μg,5.6 and 4.7 and 9.1 and 6.4 and 7.4
same,"Phagocytic number, Study Group",[3]; dose 200 μg,78 and 85 and 84 and 71 and 67
same,ability of neutrophils population to intake microbial cells,[3]; doses of 20 and 2 μg,statistically significant increase
same,effect on digestive activity of neutrophils,[3]; doses of 20 and 2 μg,practically no effect
same,"Phagocytic Index, Study Group, Mean",[3]; [7],6.0 ± 0.16
same,"Phagocytic number, Study Group, Mean",[3]; [7],86 ± 0.32
same,"Phagocytic Index, Study Group",[3]; [7],6.4 (2×) and 4.5 and 7.4 and 5.6
same,"Phagocytic number, Study Group",[3]; [7],88 and 92 (2×) and 78 and 84
"Nn1[n-]c(=O)c2ccccc2c1=O.O.O.[Na+] [sodium salt of 2-amino-1,2,3,4-tetrahydrophthalazine-1,4-dione, dihydrate]",effect in patients with weak cellular immunity reactions,[4],"activation of macrophages, interleukins and other acute phase proteins"
